Assay results published in ChEMBL document CHEMBL2202996, “Synthesis, evaluation, and radiolabeling of new potent positive allosteric modulators of the metabotropic glutamate receptor 2 as potential tracers for positron emission tomography imaging” (J Med Chem, 2012).

What was measured:
Thalamus [1] = test: Biodistribution in Wistar rat thalamus at 41 MBq, iv measured at 12 to 28 mins post administration by microPET imaging in presence of JNJ-40068782; assay type: ADME, organism-based; settings: in vivo
Hippocampus [2] = test: Biodistribution in Wistar rat hippocampus at 41 MBq, iv measured at 12 to 28 mins post administration by microPET imaging in presence of JNJ-40068782; assay type: ADME, organism-based; settings: in vivo
Cortex [3] = test: Biodistribution in Wistar rat cortex at 41 MBq, iv measured at 12 to 28 mins post administration by microPET imaging in presence of JNJ-40068782; assay type: ADME, organism-based; settings: in vivo
Cerebellum [4] = test: Biodistribution in Wistar rat cerebellum at 41 MBq, iv measured at 12 to 28 mins post administration by microPET imaging in presence of JNJ-40068782; assay type: ADME, organism-based; settings: in vivo
Striatum [5] = test: Biodistribution in Wistar rat striatum at 41 MBq, iv measured at 12 to 28 mins post administration by microPET imaging in presence of JNJ-40068782; assay type: ADME, organism-based; settings: in vivo
Thalamus [6] = test: Biodistribution in Wistar rat thalamus at 41 MBq, iv measured at 12 to 28 mins post administration by microPET imaging; assay type: ADME, organism-based; settings: in vivo
Hippocampus [7] = test: Biodistribution in Wistar rat hippocampus at 41 MBq, iv measured at 12 to 28 mins post administration by microPET imaging; assay type: ADME, organism-based; settings: in vivo
Cortex [8] = test: Biodistribution in Wistar rat cortex at 41 MBq, iv measured at 12 to 28 mins post administration by microPET imaging; assay type: ADME, organism-based; settings: in vivo
Cerebellum [9] = test: Biodistribution in Wistar rat cerebellum at 41 MBq, iv measured at 12 to 28 mins post administration by microPET imaging; assay type: ADME, organism-based; settings: in vivo
Striatum [10] = test: Biodistribution in Wistar rat striatum at 41 MBq, iv measured at 12 to 28 mins post administration by microPET imaging; assay type: ADME, organism-based; settings: in vivo
Brain [11] = test: Biodistribution in Wistar rat brain at 41 MBq, iv measured at 27 mins post administration by microPET imaging; assay type: ADME, organism-based; settings: in vivo, 0.45 h
Brain [12] = test: Biodistribution in Wistar rat brain at 41 MBq, iv measured at 12 mins post administration by microPET imaging; assay type: ADME, organism-based; settings: in vivo, 0.2 h
[13] = Metabolic stability in Wistar rat cerebellum assessed as intact tracer at 74 MBq, iv measured at 30 mins post administration by gamma counting; assay type: ADME, organism-based; settings: read-out: Stability
[14] = Metabolic stability in Wistar rat cerebrum assessed as intact tracer at 74 MBq, iv measured at 30 mins post administration by gamma counting; assay type: ADME, organism-based; settings: read-out: Stability
[15] = Metabolic stability in Wistar rat plasma assessed as intact tracer at 74 MBq, iv measured at 30 mins post administration by gamma counting; assay type: ADME, organism-based; settings: read-out: Stability
Rattus norvegicus = test: Biodistribution in Wistar rat urinary system at 22 Mbq, iv measured at 60 mins post administration by gamma counting; assay type: ADME, organism-based, Urine; settings: in vivo, 1 h
Liver = test: Biodistribution in Wistar rat liver at 22 Mbq, iv measured at 60 mins post administration by gamma counting; assay type: ADME, organism-based; settings: in vivo, 1 h
Intestine = test: Biodistribution in Wistar rat intestine at 22 Mbq, iv measured at 60 mins post administration by gamma counting; assay type: ADME, organism-based; settings: in vivo, 1 h
Blood [16] = test: Biodistribution in Wistar rat blood at 22 Mbq, iv measured at 60 mins post administration by gamma counting; assay type: ADME, organism-based; settings: in vivo, 1 h
Brain [17] = test: Ratio of SUV in total brain in iv dosed Wistar at 2 mins post administration by gamma counting to SUV in total brain in iv dosed Wistar at 30 mins post administration by gamma counting; assay type: ADME, organism-based; settings: rat, in vivo
Blood [18] = test: Biodistribution in Wistar rat blood at 22 Mbq, iv measured at 2 mins post administration by gamma counting; assay type: ADME, organism-based; settings: in vivo
Cerebellum [19] = test: Ratio of SUV in cerebellum in iv dosed Wistar at 2 mins post administration by gamma counting to SUV in cerebellum in iv dosed Wistar at 30 mins post administration by gamma counting; assay type: ADME, organism-based; settings: rat, in vivo
Cerebrum [20] = test: Ratio of SUV in cerebrum in iv dosed Wistar at 2 mins post administration by gamma counting to SUV in cerebrum in iv dosed Wistar at 30 mins post administration by gamma counting; assay type: ADME, organism-based; settings: rat, in vivo
Cortex [21] = test: Ratio of SUV in cortex in iv dosed Wistar at 2 mins post administration by gamma counting to SUV in cortex in iv dosed Wistar at 30 mins post administration by gamma counting; assay type: ADME, organism-based; settings: rat, in vivo
Hippocampus [22] = test: Ratio of SUV in hippocampus in iv dosed Wistar at 2 mins post administration by gamma counting to SUV in hippocampus in iv dosed Wistar at 30 mins post administration by gamma counting; assay type: ADME, organism-based; settings: rat, in vivo
Striatum [23] = test: Ratio of SUV in striatum in iv dosed Wistar at 2 mins post administration by gamma counting to SUV in striatum in iv dosed Wistar at 30 mins post administration by gamma counting; assay type: ADME, organism-based; settings: rat, in vivo
Brain [24] = test: Biodistribution in iv dosed Wistar rat total brain measured at 60 mins post administration by gamma counting; assay type: ADME, organism-based; settings: in vivo, 1 h
Blood [25] = test: Biodistribution in iv dosed Wistar rat blood measured at 60 mins post administration by gamma counting; assay type: ADME, organism-based; settings: in vivo, 1 h
Cerebellum [26] = test: Biodistribution in iv dosed Wistar rat cerebellum measured at 60 mins post administration by gamma counting; assay type: ADME, organism-based; settings: in vivo, 1 h
Cortex [27] = test: Biodistribution in iv dosed Wistar rat cortex measured at 60 mins post administration by gamma counting; assay type: ADME, organism-based; settings: in vivo, 1 h
Cerebrum [28] = test: Biodistribution in iv dosed Wistar rat cerebrum measured at 60 mins post administration by gamma counting; assay type: ADME, organism-based; settings: in vivo, 1 h
Hippocampus [29] = test: Biodistribution in iv dosed Wistar rat hippocampus measured at 60 mins post administration by gamma counting; assay type: ADME, organism-based; settings: in vivo, 1 h
Blood [30] = test: Biodistribution in iv dosed Wistar rat blood measured at 30 mins post administration by gamma counting; assay type: ADME, organism-based; settings: in vivo, 0.5 h
Striatum [31] = test: Biodistribution in iv dosed Wistar rat striatum measured at 60 mins post administration by gamma counting; assay type: ADME, organism-based; settings: in vivo, 1 h
Brain [32] = test: Biodistribution in iv dosed Wistar rat total brain measured at 30 mins post administration by gamma counting; assay type: ADME, organism-based; settings: in vivo, 0.5 h
Cerebrum [33] = test: Biodistribution in iv dosed Wistar rat cerebrum measured at 30 mins post administration by gamma counting; assay type: ADME, organism-based; settings: in vivo, 0.5 h
Cerebellum [34] = test: Biodistribution in iv dosed Wistar rat cerebellum measured at 30 mins post administration by gamma counting; assay type: ADME, organism-based; settings: in vivo, 0.5 h
Cortex [35] = test: Biodistribution in iv dosed Wistar rat cortex measured at 30 mins post administration by gamma counting; assay type: ADME, organism-based; settings: in vivo, 0.5 h
Hippocampus [36] = test: Biodistribution in iv dosed Wistar rat hippocampus measured at 30 mins post administration by gamma counting; assay type: ADME, organism-based; settings: in vivo, 0.5 h
Blood [37] = test: Biodistribution in iv dosed Wistar rat blood measured at 2 mins post administration by gamma counting; assay type: ADME, organism-based; settings: in vivo
Striatum [38] = test: Biodistribution in iv dosed Wistar rat striatum measured at 30 mins post administration by gamma counting; assay type: ADME, organism-based; settings: in vivo, 0.5 h
Cerebellum [39] = test: Biodistribution in iv dosed Wistar rat cerebellum measured at 2 mins post administration by gamma counting; assay type: ADME, organism-based; settings: in vivo
Brain [40] = test: Biodistribution in iv dosed Wistar rat total brain measured at 2 mins post administration by gamma counting; assay type: ADME, organism-based; settings: in vivo
Cerebrum [41] = test: Biodistribution in iv dosed Wistar rat cerebrum measured at 2 mins post administration by gamma counting; assay type: ADME, organism-based; settings: in vivo
Hippocampus [42] = test: Biodistribution in iv dosed Wistar rat hippocampus measured at 2 mins post administration by gamma counting; assay type: ADME, organism-based; settings: in vivo
Cortex [43] = test: Biodistribution in iv dosed Wistar rat cortex measured at 2 mins post administration by gamma counting; assay type: ADME, organism-based; settings: in vivo
Striatum [44] = test: Biodistribution in iv dosed Wistar rat striatum measured at 2 mins post administration by gamma counting; assay type: ADME, organism-based; settings: in vivo
Cerebellum [45] = test: Biodistribution in Wistar rat cerebellum at 22 Mbq, iv measured at 2 mins post administration by gamma counting; assay type: ADME, organism-based; settings: in vivo
Cerebrum [46] = test: Biodistribution in Wistar rat cerebrum at 22 Mbq, iv measured at 2 mins post administration by gamma counting; assay type: ADME, organism-based; settings: in vivo
Brain [47] = test: Biodistribution in Wistar rat brain at 22 Mbq, iv measured at 2 mins post administration by gamma counting; assay type: ADME, organism-based; settings: in vivo

SMILES: [11CH3]Oc1c(F)ccc(F)c1C1CCN(c2ccn3c(CC4CC4)nnc3c2Cl)CC1
- Drug uptake (Thalamus [1]): Not Active
- Drug uptake (Hippocampus [2]): Not Active
- Drug uptake (Cortex [3]): Not Active
- Drug uptake (Cerebellum [4]): Not Active
- Drug uptake (Striatum [5]): Not Active
- Drug uptake (Thalamus [6]): Active
- Drug uptake (Hippocampus [7]): Active
- Drug uptake (Cortex [8]): Active
- Drug uptake (Cerebellum [9]): Active
- Drug uptake (Striatum [10]): Active
- SUV (Brain [11]): 1.7
- SUV (Brain [12]): 1.7
- remaining at 0.5 h [13]: 95.5%
- remaining at 0.5 h [14]: 90.3%
- remaining at 0.5 h [15]: 69.7%
- Drug uptake (Rattus norvegicus): 2.4 %ID
- Drug uptake (Liver): 35.7%
- Drug uptake (Intestine): 35.7%
- Drug uptake (Blood [16]): 2 %ID
- Ratio (Brain [17]): 0.65
- Drug uptake (Blood [18]): 4.3 %ID
- Ratio (Cerebellum [19]): 0.61
- Ratio (Cerebrum [20]): 0.67
- Ratio (Cortex [21]): 0.82
- Ratio (Hippocampus [22]): 0.6
- Ratio (Striatum [23]): 0.57
- SUV (Brain [24]): 1.18
- SUV (Blood [25]): 0.28
- SUV (Cerebellum [26]): 1.75
- SUV (Cortex [27]): 1.28
- SUV (Cerebrum [28]): 1.11
- SUV (Hippocampus [29]): 0.73
- SUV (Blood [30]): 0.39
- SUV (Striatum [31]): 1.72
- SUV (Brain [32]): 2.13
- SUV (Cerebrum [33]): 1.96
- SUV (Cerebellum [34]): 2.62
- SUV (Cortex [35]): 1.77
- SUV (Hippocampus [36]): 1.49
- SUV (Blood [37]): 0.61
- SUV (Striatum [38]): 2.14
- SUV (Cerebellum [39]): 1.59
- SUV (Brain [40]): 1.39
- SUV (Cerebrum [41]): 1.32
- SUV (Hippocampus [42]): 0.9
- SUV (Cortex [43]): 1.46
- SUV (Striatum [44]): 1.22
- Drug uptake (Cerebellum [45]): 0.17 %ID
- Drug uptake (Cerebrum [46]): 0.69 %ID
- Drug uptake (Brain [47]): 0.88 %ID
